In ChEMBL document CHEMBL1158090, “Cytotoxic cycloartane triterpene saponins from Actaea asiatica” (J Nat Prod, 2006):
Calls of active or inactive are those of the source. The calls are words filed in the database; no cut-off is given here.

Columns and labels:
Type in all cases: functional, cell-based
[1] = test system: MCF7; test: Cytotoxicity against human MCF7 cells
[2] = (§1) Cytotoxicity against human Hep G2 cells; details: HepG2
[3] = test system: HepG2; test: as §1

Row | SMILES | IC50 [1] [µM] | IC50 [2] [µM] | Activity [1] | Activity [3]
1 | CC(=O)O[C@@H]1C[C@@]23C[C@@]24CC[C@H](O[C@@H]2OC[C@@H](O)[C@H](O)[C@H]2O)C(C)(C)[C@@H]4CC=C3[C@]2(C)C[C@@H]3OC(C(=O)C(C)C)=C[C@@H](C)[C@@H]3[C@@]12C [ASIATICOSIDE B] | 8.32 | 9.74 |  | 
2 | CC(=O)O[C@@H]1C[C@@]23C[C@@]24CC[C@H](O[C@@H]2OC[C@@H](O)[C@H](O)[C@H]2O)C(C)(C)[C@@H]4CC[C@H]3[C@]2(C)C[C@@H]3OC(C(=O)C(C)C)=C[C@@H](C)[C@@H]3[C@@]12C [ASIATICOSIDE A] | 9.78 | 9.9 |  | 
3 | C[C@@H]1C[C@]2(OCC[C@]3(C)O[C@H]23)O[C@H]2C[C@@]3(C)C4=CC[C@H]5C(C)(C)[C@@H](O[C@@H]6OC[C@@H](O)[C@H](O)[C@H]6O)CC[C@@]56C[C@@]46CC[C@]3(C)[C@@H]12 |  |  | inactive | inactive
